{"source": "patent US10897915B2", "about": "“Method for making coffee products containing cannabis ingredients” (Blacklist Holdings, Inc., priority 2014, dated 2021)", "key": {"[1]": {"conditions": "cited from earlier work"}, "[2]": {"test": "Coffee mug cross section analysis of brewed cup, 1:10 oil/TM mix underneath the filter", "assay_type": "physicochemical", "conditions": "1:10 oil/TM mix underneath filter", "procedure": "This example investigated how THC was interacting with the coffee mug after it had been brewed. A cup of coffee was brewed with the 1:10 oil/TM mix placed in the K-Cup underneath the filter containing coffee grounds.\nTwo separate aliquots were taken from the cup (top and middle), and then coffee was carefully poured out. Methanol was added to the cup and the oil that had condensed to the sides of the cup was dissolved and quantified."}}}
{"smiles": "CCCCCc1cc(O)c2c(c1)OC(C)(C)[C@@H]1CCC(C)=C[C@@H]21", "note": "[THC, delta-9-tetrahydrocannabinol]", "values": [{"measurement": "THC in a 200 mL cup of coffee at aqueous solubility", "setting": "[1]", "result": 0.6, "unit": "mg"}, {"measurement": "THC found in the oily coffee film at the top of the cup", "setting": "[2]", "result": "20-25%"}, {"measurement": "THC in the coffee", "setting": "[2]", "result": "approximately 60%"}, {"measurement": "THC lost (unknown cause)", "setting": "[2]", "result": 20, "unit": "%"}]}
